From patent US12612424B2, “HPK1 inhibitors and uses thereof” (Regor Pharmaceuticals, Inc., priority 2019, dated 2026)

Experiments:
[1] = target: HPK1 (Homo sapiens, UniProt Q92918); assay: HPK1 biochemical assay (ADP-GLO Kinase Assay); conditions: B*: testing performed in a first testing facility; read-out: HPK1 IC50 (nM) Relative, B*
Method in brief: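 HPK1 (0.6 ng/μL final) activity was followed with MBP substrate and 10 μM ATP in Tris pH 7.5/MgCl2/BSA/DTT buffer, measured by ADP-Glo luminescence. Compounds were tested as 3-fold dilutions from 10 μM. IC50 came from a three-parameter logistic fit, with inhibition normalised to high/low controls.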

[2] = test system: Human Pan T Cell (IL-2 release); assay: IL2 released by human pan T cell upon anti-CD3/anti-CD28 stimulation (ELISA); assay type: cell-based; conditions: human pan T cells; for maximal fold induction: 48 h, response of IL-2 over DMSO control, anti-CD3/anti-CD28, 48 hours, ELISA, read-out: IL-2 Max Fold Response
Excerpt: For example, Example 5 describes such a functional assay for determining the effect of an HPK1 inhibitor on IL-2 & IFN-γ release upon stimulation of Pan T cells. The secreted IL-2 & IFN-γ can be measured/quantified by standard ELISA assay. Briefly, pan T cells can be isolated from peripheral blood (PB) mononuclear cells (MNCs), or PBMC, using commercially available kits, such as MACS (Miltenyl Biotec) Pan T isolation kit (Cat. No. 130-096-535). Primary human pan-T cells include CD4 and CD8 T cells as well as some gamma/delta T cell subsets. The pan-T cells can be isolated using the negative immunomagnetic separation technique without the use of columns.
Isolated pan-T cells can be dispensed into 96-well plates at 100,000 cells/well, and stimulated with immobilized anti-CD3 antibody and soluable anti-CD28 antibody, or PMA/Ionomycin as the positive control (or culture media as the negative control). Different concentrations of test compounds can be added to the cells to assess the compound effect on cytokine secretion following TCR-stimulation/CD28 co-stimulation. Stimulated cells are incubated for 2 more days, before the supernatant (containing secreted cytokines by pan-T cells) is collected from each well for ELISA assay and quantitation of IL-2 and IFN-γ.
Biology Example 8 Compound Efficacy Study on IL2 & IFN-γ Released by Human Pan T Cell
This example is an assay method that can be used to determine compound effects on IL2 & IFN-γ release using pan T cells and ELISA assay format.
3. Procedures Procedures for Pan T isolation and Reagent preparation (Day 0): 1. Cell Growth Medium: • RPMI1640: ATCC, Cat #30-2001 • 10% FBS: Gibco, Cat #10099141 • 1% Pen-Strep: Gibco, Cat #15140122 • 1% Non-essential amino: Gibco, Cat #11140050 • Beta-Mercaptoethanol: Gibco, Cat #21985023 2. Pan T Isolation Buffer Preparation:
Prepare a solution containing phosphate-buffered saline (PBS), pH 7.2, 0.5% bovine serum albumin (BSA), and 2 mM EDTA by diluting MACS® BSA Stock Solution (#130-091-376) 20 times with autoMACS® Rinsing Solution. Keep buffer at 4° C. Degas buffer before use, as air bubbles could block the column.
3. Thawing of Frozen PBMC • 1) Pre-heat medium at 37° C. water bath. • 2) Rapidly thaw cells in 37° C. water bath. • 3) Add the pre-warmed medium into 15 mL tube. Transfer cells to the tube. • 4) 300×g centrifuge for 8 min. (centrifuge increase 0, decrease 0). • 5) Wash the PBMC using Rinsing buffer. • 6) Centrifuge PBMC at 300×g for 8 min, wash it twice (centrifuge increase 9, decrease 1). • 7) Resuspend the cells with Pan T cells isolation buffer and count cells number. 4. Pan T Cells Isolation: Cell Staining with Microbead Cocktail • 1) Prepare cells and determine cell number. Filter cells by 70 μm cell strainer. • 2) Resuspend cell pellet in 40 μL of buffer per 10^7 total cells. • 3) Add 10 μL of Pan T Cell Biotin-Antibody Cocktail per 10^7 total cells. • 4) Mix well and incubate for 10 minutes in the refrigerator (ice). • 5) Add 30 μL of buffer per 10^7 total cells. • 6) Add 20 μL of Pan T Cell MicroBead Cocktail per 10^7 total cells. • 7) Mix well and incubate for 15 minutes in the refrigerator (ice). • 8) Proceed to subsequent magnetic cell separation. • Note: a. Work fast, keep cells cold, and use pre-cooled solutions (2-8° C.). b. Volumes for magnetic labeling given are for up to 10′ total cells. When working with fewer cells, use the same volumes as indicated. c. When working with higher cell numbers, scale up all reagent volumes and total volumes accordingly. d. For optimal performance it is important to obtain a single-cell suspension before magnetic labeling. Subsequent Manual Cell Separation: • 1) Place LS Column in the magnetic field of a suitable MACS Separator. For details refer to the respective MACS Column data sheet. • 2) Prepare column by rinsing with 3 mL of buffer. • 3) Apply cell suspension onto the column. Collect flow-through, which represents the enriched T cells. • 4) Wash column with 5 mL of buffer. […]

[3] = target: T1, JAK3 (Homo sapiens, UniProt P52333); assay: JAK3 biochemical assay (ADP-GLO Kinase Assay); conditions: for IC50: B*: testing performed in a first testing facility, read-out: JAK3 IC50 (nM) Relative, B*; for JAKs/HPK1 IC50 Ratio, B*: ratio of JAK3 IC50 to HPK1 IC50, first testing facility
T1 construct: purchased Thermo fisher PV3855
Method in brief: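 Human JAK3 (0.78 ng) with 0.2 μg/μL Poly(E4Y1) and 4 μM ATP in 40 mM Tris pH 7.5, 20 mM MgCl2, 0.1 mg/ml BSA, 50 μM DTT, 1% DMSO; 60 min at 25 °C. ADP formed read by ADP-Glo luminescence. 10-dose 3-fold series from 10 μM; IC50 by three-parameter logistic fit.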

T1 sequence (P52333 781-1124 limits assumed): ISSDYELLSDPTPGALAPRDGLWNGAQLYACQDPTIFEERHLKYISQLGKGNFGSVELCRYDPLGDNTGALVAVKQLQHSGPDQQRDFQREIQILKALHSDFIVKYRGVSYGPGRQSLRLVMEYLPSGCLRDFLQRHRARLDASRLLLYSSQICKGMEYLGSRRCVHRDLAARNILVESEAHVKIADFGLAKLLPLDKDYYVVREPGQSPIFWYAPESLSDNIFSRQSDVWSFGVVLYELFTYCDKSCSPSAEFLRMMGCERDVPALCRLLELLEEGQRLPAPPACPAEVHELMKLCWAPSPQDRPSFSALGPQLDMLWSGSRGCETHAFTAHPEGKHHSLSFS
Sequence of HPK1 (Q92918 whole entry): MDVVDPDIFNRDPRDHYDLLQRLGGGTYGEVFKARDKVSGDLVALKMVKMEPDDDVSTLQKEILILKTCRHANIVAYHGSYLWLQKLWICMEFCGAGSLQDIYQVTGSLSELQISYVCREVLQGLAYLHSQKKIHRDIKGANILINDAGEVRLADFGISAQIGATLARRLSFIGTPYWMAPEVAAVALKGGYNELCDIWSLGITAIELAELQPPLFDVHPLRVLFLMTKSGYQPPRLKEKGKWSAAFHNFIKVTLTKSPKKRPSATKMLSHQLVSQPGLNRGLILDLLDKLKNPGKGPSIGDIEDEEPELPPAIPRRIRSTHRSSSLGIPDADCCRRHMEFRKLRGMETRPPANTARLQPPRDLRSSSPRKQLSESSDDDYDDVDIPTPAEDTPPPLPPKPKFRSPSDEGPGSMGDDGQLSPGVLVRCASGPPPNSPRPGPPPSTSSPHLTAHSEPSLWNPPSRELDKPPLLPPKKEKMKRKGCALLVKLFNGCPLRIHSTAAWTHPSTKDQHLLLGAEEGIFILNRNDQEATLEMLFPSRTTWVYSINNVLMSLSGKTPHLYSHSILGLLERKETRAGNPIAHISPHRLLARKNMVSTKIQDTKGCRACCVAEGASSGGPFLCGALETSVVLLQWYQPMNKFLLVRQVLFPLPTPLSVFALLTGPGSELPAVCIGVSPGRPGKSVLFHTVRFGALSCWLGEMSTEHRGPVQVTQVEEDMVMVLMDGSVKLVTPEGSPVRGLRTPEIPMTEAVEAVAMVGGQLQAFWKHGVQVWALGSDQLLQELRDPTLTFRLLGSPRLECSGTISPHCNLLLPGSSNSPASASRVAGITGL

Compound	IC50 [1]	EC50 ([2]; Homo sapiens, T-cell, IL-2 response, calculated with GraphPad Prism)	IC50 [3]	JAKs/HPK1 IC50 Ratio, B* [3]	maximal fold induction ([2]; Homo sapiens, T-cell)	EC2x (nM) ([2]; concentration of compound that gives 200% IL-2 response (2 folds) over DMSO control)
COc1cc2c(cc1Nc1ncc(Cl)c(-n3cc(F)c4ccccc43)n1)CN(C)CC2 [Example 11, N-(5-Chloro-4-(3-fluoro-1H-indol-1-yl)pyrimidin-2-yl)-6-methoxy-2-methyl-1,2,3,4-tetrahydroisoquinolin-7-amine]	≤ 100 nM				< 2	
COc1cc2c(cc1Nc1ncc(Cl)c(N3CCc4ccccc43)n1)CN(CCO)CC2 [Example 27]	≤ 100 nM	> 1000 nM			> 2	+ (“+”, for greater than 1 μM)
COc1nc2c(cc1Nc1ncc(Cl)c(N3CC(C)(CC(=O)O)c4ccccc43)n1)CN(C)CC2 (centres unmarked) [Example 155]	≤ 100 nM		> 1000 nM	>111		
COc1cc2c(cc1Nc1ncc(Cl)c(N3CCC4(COC4)C3)n1)CN(C)CC2 [Example 170, N-(5-chloro-4-(2-oxa-6-azaspiro[3.4]octan-6-yl)pyrimidin-2-yl)-6-methoxy-2-methyl-1,2,3,4-tetrahydroisoquinolin-7-amine]	100 to 500 nM		> 1000 nM	77		
COc1cc2c(cc1Nc1ncc3ccc(=O)n(-c4ccccc4)c3n1)CN(C)CC2 [Example 171, 2-((6-Methoxy-2-methyl-1,2,3,4-tetrahydroisoquinolin-7-yl)amino)-8-phenylpyrido[2,3-d]pyrimidin-7(8H)-one]	≤ 100 nM		> 1000 nM	121		

The next lines start with results.

IC50 [1]	EC50 ([2]; Homo sapiens, T-cell, IL-2 response, calculated with GraphPad Prism)	IC50 [3]	JAKs/HPK1 IC50 Ratio, B* [3]	Compound	maximal fold induction ([2]; Homo sapiens, T-cell)	EC2x (nM) ([2]; concentration of compound that gives 200% IL-2 response (2 folds) over DMSO control)
≤ 100 nM		> 1000 nM	250	COc1cc2c(cc1Nc1ncc(Cl)c(-n3cc(C(C(=O)O)C(F)(F)F)c4ccccc43)n1)CN(C)CC2 (centres unmarked) [Example 144]		
≤ 100 nM		> 1000 nM	421	COc1cc2c(cc1Nc1ncc3cc(C(=O)O)n(-c4ccccc4)c3n1)CN(C)CC2 [Example 165, 2-((6-Methoxy-2-methyl-1,2,3,4-tetrahydroisoquinolin-7-yl)amino)-7-phenyl-7H-pyrrolo[2,3-d]pyrimidine-6-carboxylic acid]		
100 to 500 nM		> 1000 nM		COc1cc2c(cc1Nc1ncc3c(n1)n(-c1ccccc1)c(=O)n3C)CN(C)CC2 [Example 166, 2-((6-Methoxy-2-methyl-1,2,3,4-tetrahydroisoquinolin-7-yl)amino)-7-methyl-9-phenyl-7,9-dihydro-8H-purin-8-one]		
≤ 100 nM		> 1000 nM	737	COc1cc2c(cc1Nc1ncc(Cl)c(N3CC(C(=O)O)C4(CCOCC4)C3)n1)CN(C)CC2 (centres unmarked) [Example 168]		
